Reference: publication PMC7763155, “Design and Characterisation of Inhibitory Peptides against Bleg1_2478, an Evolutionary Divergent B3 Metallo-β-lactamase” (Molecules, 2020)
Like-named read-outs stand apart in the source and are kept apart here. Blank lines part the entries; values can stand above or below the molecule they belong to. No end group written: not given here.

Key:
Bleg1_2478 [1] = target: T1, Bleg1_2478 (Shouchella lehensis (Bacillus lehensis), UniProt A0A060M4R1); conditions: in words; ref [22]; cited from earlier work
Text: Biochemical characterization of purified recombinant Bleg1_2478 further confirmed that it was indeed capable of degrading β-lactam antibiotics, with ampicillin ...

Bleg1_2478 [2] = target: T1, Bleg1_2478; assay: Isothermal titration calorimetry (ITC) with Bleg1_2478; type: binding, Bacillus lehensis G1
Experimental: ITC measurement was performed at 30 °C with nanoisothermal titration calorimetry, TA Instrument, USA at Malaysian Genome Institute. The peptides were dissolved in 20 mM sodium phosphate buffer (Na2HPO4-NaH2PO4) (pH 7.0). Bleg1_2478 protein sample, the selected peptide inhibitors and 20 mM sodium phosphate buffer (Na2HPO4-NaH2PO4) (pH 7.0) were firstly degassed by using Themovac Unit. The experiment was carried out at 30 °C with stirring speed of 300 rpm. The calorimetry data were subsequently analysed using NanoAnalyze Software v3.8.0. (New Castle, DE, USA)

MBLs = conditions: in words; ref [20]; cited from earlier work
Text: (§1) AMR among bacteria can be acquired through various means, i.e., through: (1) hydrolysis or inactivation of antibiotics by synthesizing enzymes; (2) redox process by exploiting the oxidation or reduction of the antibiotics; (3) modification of antibiotics by chemical substitution; (4) modification of the inhibition binding site in the target; (5) mutations on genes that encode the target or efflux pump that affect antibiotics uptake; (6) horizontal gene transfer where resistant genes are transferred from one pathogen to another via transduction, conjugation or ...

Class A SBLs = conditions: in words; ref [17],[18],[19]; cited from earlier work
Text: as §1

Bleg1_2478 [3] = target: T1, Bleg1_2478; assay: Inhibitory assay of designed peptides against Bleg1_2478 (ampicillin hydrolysis); type: biochemical, Bacillus lehensis G1; conditions: pH 7.0, 30 °C, triplicates
Experimental: The ability of the peptides in inhibiting Bleg1_2478 was investigated via inhibitory assay. Firstly, enzymatic assay of purified Bleg1_2478 recombinant protein using ampicillin as the substrate was performed, serving as the positive control. The assay was carried out based on the method by. All assays were performed at 30 °C in total assay volume of 3 mL containing 20 mM sodium phosphate (Na2HPO4-NaH2PO4) (pH 7.0), 20 µg/mL BSA, 100 µM ZnSO4, 10 µM Bleg1_2478 and 100 µM ampicillin. The reaction was monitored by recording the absorbance at 235 nm every 1 min for a total duration of 6 min using a 50 Bio UV Visible Spectrophotometry. […] All assays were done in triplicates.

[4] = target: Bleg1_2478 recombinant protein (Bacillus lehensis G1)
[5] = target: Bleg1_2478 recombinant protein (Bacillus lehensis G1); remark: listed apart in the source
[6] = target: Bleg1_2478 recombinant protein (Bacillus lehensis G1); assay: ITC; nano isothermal titration calorimetry (TA Instruments), 30 °C, 20 mM sodium phosphate buffer pH 7.0, stirring 300 rpm; which partner was in the cell and the concentrations are not stated
[7] = 10 µM peptide, 10 µM enzyme, 100 µM ampicillin
[8] = ITC, 30 °C, 20 mM sodium phosphate pH 7.0, 300 rpm, read-out: Dissociation constant, Kd

Molecule: CC1(C)S[C@@H]2[C@H](NC(=O)[C@H](N)c3ccccc3)C(=O)N2[C@H]1C(=O)O [Ampicillin, ampicillin, reference compound]
Substrate preference (Bleg1_2478 [1]): preferred substrate
Kd (Bleg1_2478 [2]): 1470 nM
Entropy, ΔS (Bleg1_2478 [2]; ITC, 30 °C, 20 mM sodium phosphate pH 7.0): −248.00 J/mol·K
Association constant, Ka (Bleg1_2478 [2]; ITC, 30 °C, 20 mM sodium phosphate pH 7.0, 300 rpm): 680000 M⁻¹
Number of binding sites from stoichiometry (Bleg1_2478 [2]; ITC, in words): one binding site

Molecule: O=C(O)[C@H]1/C(=C/CO)O[C@@H]2CC(=O)N21 [clavulanate]
Effectiveness against MBLs (MBLs): not
Effectiveness against Class A SBLs (Class A SBLs): effective

Molecule: CC1(C)[C@H](C(=O)O)N2C(=O)C[C@H]2S1(=O)=O [sulbactam]
Effectiveness against MBLs (MBLs): not
Effectiveness against Class A SBLs (Class A SBLs): effective

Molecule: C[C@]1(Cn2ccnn2)[C@H](C(=O)O)N2C(=O)C[C@H]2S1(=O)=O [tazobactam]
Effectiveness against MBLs (MBLs): not
Effectiveness against Class A SBLs (Class A SBLs): effective

Molecule: RSWPWH [RSWPWH]
Inhibition of Bleg1_2478 (Bleg1_2478 [3]; 0.75 µM peptide): 12%
Inhibition of Bleg1_2478 (Bleg1_2478 [3]; [7]): 92%
Kd (Bleg1_2478 [2]; [8]): 497 nM
Fold increase in binding strength (Kd) (Bleg1_2478 [2]; ITC, compared to ampicillin): 34 fold

Molecule: SSWWDR [SSWWDR]
Inhibition of Bleg1_2478 (Bleg1_2478 [3]; 0.25 µM peptide): 4%
Inhibition of Bleg1_2478 (Bleg1_2478 [3]; 0.50 µM peptide): 48%
Inhibition of Bleg1_2478 (Bleg1_2478 [3]; 0.75 µM peptide): 64%
Inhibition of Bleg1_2478 (Bleg1_2478 [3]; [7]): 88%
Inhibition of Bleg1_2478 (Bleg1_2478 [3]; 20 µM peptide, 10 µM enzyme, 100 µM ampicillin): 96%
Kd (Bleg1_2478 [2]; [8]): 992 nM
Fold increase in binding affinity (Ka) (Bleg1_2478 [2]; ITC, compared to ampicillin): 1.5 fold
Fold increase in binding strength (Kd) (Bleg1_2478 [2]; ITC, compared to ampicillin): 68 fold

percent inhibition of Bleg1 2478 activity on ampicillin at 0.75 to 20 µM peptide (12% at 0.75 µM, 54% at 0.90 µM, 68% at 1 µM, 92% at 10 µM, the same at 20 µM) [4]: 92%
IC50 of inhibition of Bleg1 2478 enzymatic activity (hydrolysis of 100 µM ampicillin by 10 µM Bleg1 2478, absorbance at 235 nm, 30 °C, pH 7.0) [5]: 0.9 µM
Ka [6]: 2.01e+06 M⁻¹
Kd [6]: 497 nM
stoichiometry N [6]: 0.941
Molecule: RSWPWH [RSWPWH inhibitory peptide]

percent inhibition of Bleg1 2478 activity on ampicillin at 0.25 to 20 µM peptide (4% at 0.25 µM, 48% at 0.50 µM, 64% at 0.75 µM, 76% at 1 µM, 88% at 10 µM, 96% at 20 µM) [4]: 96%
IC50 of inhibition of Bleg1 2478 enzymatic activity (hydrolysis of 100 µM ampicillin by 10 µM Bleg1 2478, absorbance at 235 nm, 30 °C, pH 7.0) [5]: 0.5 µM
Ka [6]: 1.01e+06 M⁻¹
Kd [6]: 992 nM
stoichiometry N [6]: 0.722
Molecule: SSWWDR [SSWWDR inhibitory peptide]
